Assay results taken from ChEMBL document CHEMBL1201862, “PubChem BioAssay data set” (2004).
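Protocol summary: plate cells (96-well), add compound at 5 concentrations, incubate 48 h, interpolate endpoints linearly. GI50 marks 50% less growth.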 Calls of active or inactive are those of the source. Rule as the data show it: active = GI50 up to about 1.1 µM and inactive = higher.

What was measured:
Test in all cases: NCI tumour cell line growth inhibition, 48 h
A549 = test system: A549
BT-549 = test system: BT-549
EKVX = test system: EKVX
HCT-116 = test system: HCT-116
HL-60 = test system: HL-60
HT-29 = test system: HT-29
LOX IMVI = test system: LOX IMVI
M14 = test system: M14
MDA-MB-231 = test system: MDA-MB-231
NCI-H226 = test system: NCI-H226
NCI-H23 = test system: NCI-H23
NCI-H460 = test system: NCI-H460
PC-3 = test system: PC-3
SF-268 = test system: SF-268
SK-MEL-2 = test system: SK-MEL-2
SNB-75 = test system: SNB-75
SW-620 = test system: SW-620
U-251 = test system: U-251
UACC-62 = test system: UACC-62
UO-31 = test system: UO-31

| SMILES | GI50 (A549) | GI50 (BT-549) | GI50 (EKVX) | GI50 (HCT-116) | GI50 (HL-60) | GI50 (HT-29) | GI50 (LOX IMVI) | GI50 (M14) | GI50 (MDA-MB-231) | GI50 (NCI-H226) | GI50 (NCI-H23) | GI50 (NCI-H460) | GI50 (PC-3) | GI50 (SF-268) | GI50 (SK-MEL-2) | GI50 (SNB-75) | GI50 (SW-620) | GI50 (U-251) | GI50 (UACC-62) | GI50 (UO-31) |
| --- | --- | --- | --- | --- | --- | --- | --- | --- | --- | --- | --- | --- | --- | --- | --- | --- | --- | --- | --- | --- |
| O=C(O)CS(=O)(=O)C(c1ccccc1)c1ccccc1 | > 100 µM (inactive) | > 100 µM (inactive) | > 100 µM (inactive) | > 100 µM (inactive) | > 100 µM (inactive) | > 100 µM (inactive) | > 100 µM (inactive) | > 100 µM (inactive) | > 100 µM (inactive) | > 100 µM (inactive) | > 100 µM (inactive) | > 100 µM (inactive) | > 100 µM (inactive) | > 100 µM (inactive) | > 100 µM (inactive) | > 100 µM (inactive) | > 100 µM (inactive) | > 100 µM (inactive) | > 100 µM (inactive) | > 100 µM (inactive) |
| COc1c2cc([N+](=O)[O-])cc1CNC(=O)CN1CCOCCOCCN(CCOCCOCC1)CC(=O)NC2 | > 100 µM (inactive) | > 100 µM (inactive) | > 100 µM (inactive) | > 100 µM (inactive) | > 100 µM (inactive) | > 100 µM (inactive) | > 100 µM (inactive) | > 100 µM (inactive) | > 100 µM (inactive) | > 100 µM (inactive) | > 100 µM (inactive) | > 100 µM (inactive) | > 100 µM (inactive) | > 100 µM (inactive) | > 100 µM (inactive) | > 100 µM (inactive) | > 100 µM (inactive) | > 100 µM (inactive) | > 100 µM (inactive) | > 100 µM (inactive) |
| COc1ccc(C[C@H]2COC(=O)[C@@H]2Cc2ccc(Br)cc2)cc1OC | 20 µM (inactive) | 17.5 µM (inactive) | 7.19 µM (inactive) | 19.1 µM (inactive) | 20.4 µM (inactive) | 30.4 µM (inactive) | 11.2 µM (inactive) | 33.3 µM (inactive) | 24 µM (inactive) | 28.8 µM (inactive) | 9.06 µM (inactive) | 33.4 µM (inactive) | 15.6 µM (inactive) | 20.1 µM (inactive) | 19.9 µM (inactive) | 23.3 µM (inactive) | 44.7 µM (inactive) | 35 µM (inactive) | 27.8 µM (inactive) | 6.18 µM (inactive) |
| COc1cc(CC2c3cc(OC)c(OC)cc3CCN2C)c(Oc2cc3c(cc2OC)-c2c(O)c(OC)cc4c2C(C3)N(C)CC4)cc1OC (stereo not given) | 33.2 µM (inactive) | 14.8 µM (inactive) | 20.5 µM (inactive) | 18.1 µM (inactive) | 4.01 µM (inactive) | 6.82 µM (inactive) | 16.5 µM (inactive) | 5.04 µM (inactive) | 18.3 µM (inactive) | 26.7 µM (inactive) | 22.2 µM (inactive) | 18.4 µM (inactive) | 23.3 µM (inactive) | 17.8 µM (inactive) | 22.8 µM (inactive) | 14.9 µM (inactive) | 39.5 µM (inactive) | 24.5 µM (inactive) | 20.5 µM (inactive) | 18.5 µM (inactive) |
| ClCc1nc2cc(Cl)ccc2o1 | 17 µM (inactive) | 14.3 µM (inactive) | 3.75 µM (inactive) | 6.97 µM (inactive) | 2.49 µM (inactive) | 2.54 µM (inactive) | 2.44 µM (inactive) | 4.31 µM (inactive) | 3.16 µM (inactive) | 15.9 µM (inactive) | 8.99 µM (inactive) | 12.5 µM (inactive) | 5.15 µM (inactive) | 7.98 µM (inactive) | 5.78 µM (inactive) | 10.9 µM (inactive) | 3.49 µM (inactive) | 3.15 µM (inactive) | 8.15 µM (inactive) | 1.02 µM (active) |
| Cc1cc(Cl)ccc1Nc1nc2c(s1)C(=O)c1ccccc1C2=O | 4.59 µM (inactive) | 1.53 µM (inactive) | 9.04 µM (inactive) | 2.12 µM (inactive) | 0.621 µM (active) | 18.3 µM (inactive) | 1.53 µM (inactive) | 0.948 µM (active) | 1.3 µM (inactive) | 6.34 µM (inactive) | 1.84 µM (inactive) | 3.32 µM (inactive) | 1.82 µM (inactive) | 3.24 µM (inactive) | 8.45 µM (inactive) | 7.33 µM (inactive) | 1.94 µM (inactive) | 3.28 µM (inactive) | 2.5 µM (inactive) | 4.45 µM (inactive) |
| C1CNOCCCONCCCNOCCCONC1 | 91.8 µM (inactive) | 69.5 µM (inactive) | 50.2 µM (inactive) | > 100 µM (inactive) | 51.8 µM (inactive) | > 100 µM (inactive) | > 100 µM (inactive) | 72.1 µM (inactive) | 26.8 µM (inactive) | > 100 µM (inactive) | > 100 µM (inactive) | 32.1 µM (inactive) | 27.6 µM (inactive) | 85.9 µM (inactive) | 25.1 µM (inactive) | > 100 µM (inactive) | > 100 µM (inactive) | 31.7 µM (inactive) | > 100 µM (inactive) | > 100 µM (inactive) |
| Cc1c(O)c(OC2OC(CO)C(O)C(O)C2O)cc2c1C=C[C@@H]1[C@@]2(C)C(=O)C[C@]2(C)[C@@H]([C@@](C)(O)C(=O)CCC(C)(C)O)[C@H](O)C[C@@]12C (stereo not given in full) | 26.7 µM (inactive) | 26.9 µM (inactive) | 28.6 µM (inactive) | 18.9 µM (inactive) | 41.5 µM (inactive) | 28.8 µM (inactive) | 22.6 µM (inactive) | 26.4 µM (inactive) | 21.1 µM (inactive) | 23.3 µM (inactive) | 17.1 µM (inactive) | 20.2 µM (inactive) | 21.6 µM (inactive) | 28.7 µM (inactive) | 26.2 µM (inactive) | 25.1 µM (inactive) | 29 µM (inactive) | 20.7 µM (inactive) | 18.1 µM (inactive) | 20.2 µM (inactive) |
| Cc1ccc(OCC2OC(n3cnc4c(Cl)nc(Nc5cc(Cl)cc(Cl)c5)nc43)CC2Oc2ccc(C)cc2)cc1 (stereo not given) | > 100 µM (inactive) | > 100 µM (inactive) | > 100 µM (inactive) | > 100 µM (inactive) | > 100 µM (inactive) | > 100 µM (inactive) | > 100 µM (inactive) | > 100 µM (inactive) | > 100 µM (inactive) | > 100 µM (inactive) | > 100 µM (inactive) | > 100 µM (inactive) | > 100 µM (inactive) | > 100 µM (inactive) | > 100 µM (inactive) | 17.4 µM (inactive) | > 100 µM (inactive) | > 100 µM (inactive) | > 100 µM (inactive) | > 100 µM (inactive) |
| CC1=C(C)C(=O)OC(C(C)(O)C2(O)CC3OC34C3CC(O)C56OC5C=CC(=O)C6(C)C3CCC42C)C1 (stereo not given) | 3.33 µM (inactive) | 0.914 µM (active) | 2.36 µM (inactive) | 1.38 µM (inactive) | 0.264 µM (active) | 1.15 µM (inactive) | 1.79 µM (inactive) | 1.27 µM (inactive) | 1.78 µM (inactive) | 4.76 µM (inactive) | 1.91 µM (inactive) | 1.45 µM (inactive) | 2.87 µM (inactive) | 1.64 µM (inactive) | 2.59 µM (inactive) | 3.78 µM (inactive) | 3.03 µM (inactive) | 1.76 µM (inactive) | 0.617 µM (active) | 0.341 µM (active) |
| CSc1nnc(SCc2nn3c(=O)cc(C)nc3s2)s1 | > 100 µM (inactive) | > 100 µM (inactive) | > 100 µM (inactive) | > 100 µM (inactive) | > 100 µM (inactive) | > 100 µM (inactive) | > 100 µM (inactive) | > 100 µM (inactive) | > 100 µM (inactive) | > 100 µM (inactive) | > 100 µM (inactive) | > 100 µM (inactive) | > 100 µM (inactive) | > 100 µM (inactive) | > 100 µM (inactive) | > 100 µM (inactive) | > 100 µM (inactive) | > 100 µM (inactive) | > 100 µM (inactive) | > 100 µM (inactive) |
| Cc1ccc2c(c1)C(C(=O)N[C@@H]1C(=O)N3[C@@H]1SC(C)(C)[C@@H]3C(=O)O)OCCC2 (stereo not given in full) | > 100 µM (inactive) | > 100 µM (inactive) | > 100 µM (inactive) | > 100 µM (inactive) | > 100 µM (inactive) | > 100 µM (inactive) | > 100 µM (inactive) | > 100 µM (inactive) | > 100 µM (inactive) | > 100 µM (inactive) | > 100 µM (inactive) | > 100 µM (inactive) | > 100 µM (inactive) | > 100 µM (inactive) | > 100 µM (inactive) | > 100 µM (inactive) | > 100 µM (inactive) | > 100 µM (inactive) | > 100 µM (inactive) | > 100 µM (inactive) |
| O=C1C(NCCN2CCOCC2)=C(Cl)C(=O)c2ncccc21 | 1.55 µM (inactive) | 1.29 µM (inactive) | 1.48 µM (inactive) | 0.348 µM (active) | 0.0249 µM (active) | 0.637 µM (active) | 0.168 µM (active) | 0.469 µM (active) | 1.58 µM (inactive) | 1.69 µM (inactive) | 0.556 µM (active) | 0.445 µM (active) | 0.289 µM (active) | 1.52 µM (inactive) | 0.226 µM (active) | 1.12 µM (inactive) | 0.105 µM (active) | 0.849 µM (active) | 0.618 µM (active) | 1.12 µM (active) |
| COc1ccc2c(c1OC)C(C(Cl)(Cl)Cl)N1CCc3cc4c(cc3C1=C2)OCO4 (stereo not given) | 35.6 µM (inactive) | 1.03 µM (active) | 42.7 µM (inactive) | 10.6 µM (inactive) | 15.2 µM (inactive) | 25.8 µM (inactive) | 32.7 µM (inactive) | 28.4 µM (inactive) | 23.5 µM (inactive) | 10.9 µM (inactive) | 12.9 µM (inactive) | 10.7 µM (inactive) | 24.7 µM (inactive) | 3.41 µM (inactive) | 17.2 µM (inactive) | 46.5 µM (inactive) | 21.2 µM (inactive) | 3.69 µM (inactive) | 11.8 µM (inactive) | 35.6 µM (inactive) |
